Data on ten compounds can be found in ChEMBL document CHEMBL1201862, “PubChem BioAssay data set” (2004).

Among the test systems are A549; COLO 205; DU-145; EKVX; HCC 2998; HOP-62; HOP-92; KM12; MDA-MB-231; MDA-MB-435; NCI-H460; OVCAR-3; OVCAR-8; RPMI-8226; SK-MEL-5; SK-OV-3; SNB-75; U-251; UACC-257; UO-31.
Common to all, as to test: NCI anticancer screen, dose series, 48 h

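Values below derive from 48-hour exposures of cells grown in 96-well plates, with endpoints linearly interpolated between the two concentrations bracketing the appropriate inhibition level. GI50: concentration for 50% inhibition of growth.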 Calls of active or inactive are those of the source. Rule as the data show it: active = GI50 up to about 1.1 µM and inactive = higher.

Turning to `CCOc1cccc(-c2cc(O)c3cc4c(cc3n2)OCO4)c1`, the GI50 in the experiment on A549 was 0.378 µM (active); in the experiment on COLO 205, 0.206 µM (active); in the experiment on DU-145 it was 0.335 µM (active); in the experiment with EKVX it was 10.5 µM (inactive); in the experiment on HCC 2998, 0.239 µM (active); in the experiment with HOP-62, 0.621 µM (active). Moreover, the GI50 was 0.264 µM (active) with HOP-92; 0.267 µM (active) in the experiment on KM12; 0.243 µM (active) in the experiment with MDA-MB-231; 0.0164 µM (active) with MDA-MB-435; 0.318 µM (active) with NCI-H460; 0.182 µM (active) in the experiment on OVCAR-3. The GI50 is 0.265 µM (active) with OVCAR-8; 0.318 µM (active) in the experiment on RPMI-8226; 0.0505 µM (active) in the experiment with SK-MEL-5; 0.166 µM (active) in the experiment on SK-OV-3; 0.0948 µM (active) in the experiment on SNB-75; 0.0619 µM (active) in the experiment with U-251. Also, the values for the GI50 with UACC-257 and with UO-31 were 1.95 µM (inactive) and 0.339 µM (active), respectively.

Consider `CN(C)CC1CC/C(=C\c2ccc(O)cc2)C1=O` (stereo not given), for which the GI50 in the experiment with A549 is 19 µM (inactive); with COLO 205, 1.87 µM (inactive); in the experiment with DU-145, 16.1 µM (inactive); in the experiment with EKVX, 4.83 µM (inactive); in the experiment with HCC 2998, 10.7 µM (inactive); with HOP-62 it was 18.5 µM (inactive). Moreover, the GI50 in the experiment with HOP-92 was 2.48 µM (inactive); with KM12, 4.18 µM (inactive); in the experiment on MDA-MB-231, 4.14 µM (inactive); with MDA-MB-435, 5.07 µM (inactive); in the experiment with NCI-H460, 17.5 µM (inactive); with OVCAR-3, 3.67 µM (inactive). The GI50 is 4.6 µM (inactive) with OVCAR-8; 1.02 µM (active) in the experiment with RPMI-8226; 8.28 µM (inactive) in the experiment with SK-MEL-5; 18.4 µM (inactive) with SK-OV-3; 11 µM (inactive) in the experiment on SNB-75; 6.71 µM (inactive) in the experiment on U-251. Also, the GI50 in the experiment with UACC-257 is 3.94 µM (inactive); with UO-31, 12.9 µM (inactive).

Consider `CCC(C)(O)c1cnc(CC(C)C)c(=O)n1O` (stereo not given), for which the GI50 in the experiment on A549 is 43.9 µM (inactive); in the experiment on COLO 205 it was 54.7 µM (inactive); in the experiment on DU-145, > 100 µM (inactive); in the experiment with EKVX it was 49.4 µM (inactive); in the experiment on HCC 2998, 40.7 µM (inactive); in the experiment with HOP-62, 42.9 µM (inactive). In addition, the GI50 was 85.9 µM (inactive) with HOP-92; 37.7 µM (inactive) in the experiment on KM12; 43.3 µM (inactive) with MDA-MB-231; 57.7 µM (inactive) in the experiment on MDA-MB-435; 28.1 µM (inactive) with NCI-H460; 33.8 µM (inactive) in the experiment with OVCAR-3. For the same compound, the GI50 in the experiment on OVCAR-8 was 34 µM (inactive); in the experiment with RPMI-8226 it was 11.5 µM (inactive); with SK-MEL-5 it was 88.1 µM (inactive); in the experiment with SK-OV-3, 87.5 µM (inactive); with SNB-75 it was 31.6 µM (inactive); in the experiment on U-251, 47.9 µM (inactive). The GI50 was 97.3 µM (inactive) in the experiment with UACC-257 and 40.1 µM (inactive) with UO-31.

For the compound `O=C(/C=C1\N=C(c2ccccc2)N(c2nc3c(Cl)cc(Cl)cc3s2)C1=O)/C=C/c1ccccc1`, the GI50 with A549 is > 100 µM (inactive); with COLO 205, 47.6 µM (inactive); with DU-145, > 100 µM (inactive); with EKVX it was > 100 µM (inactive); in the experiment on HCC 2998, > 100 µM (inactive); in the experiment on HOP-62 it was > 100 µM (inactive). Also, the GI50 was > 100 µM (inactive) with HOP-92; > 100 µM (inactive) in the experiment with KM12; > 100 µM (inactive) in the experiment on MDA-MB-231; 54.3 µM (inactive) in the experiment on MDA-MB-435; > 100 µM (inactive) in the experiment with NCI-H460; 75.3 µM (inactive) with OVCAR-3. The GI50 in the experiment on OVCAR-8 is > 100 µM (inactive); with RPMI-8226 it was 63 µM (inactive); in the experiment on SK-MEL-5 it was 56.4 µM (inactive); with SK-OV-3, > 100 µM (inactive); with SNB-75, 36.5 µM (inactive); in the experiment with U-251 it was > 100 µM (inactive). Besides, the GI50 in the experiment with UACC-257 and with UO-31 was > 100 µM (inactive) each time.

In the case of `CC(=O)OCC1OC(N2C(=O)/C(=C\c3ccc(Cl)cc3)C(N)=Nc3ccccc32)C(OC(C)=O)C(OC(C)=O)C1OC(C)=O` (stereo not given), the GI50 with A549 is 27.8 µM (inactive); in the experiment with COLO 205 it was 12.1 µM (inactive); with DU-145 it was 28.8 µM (inactive); in the experiment with EKVX, 29.2 µM (inactive); in the experiment on HCC 2998 it was 16.1 µM (inactive); with HOP-62, 29.2 µM (inactive). In addition, the GI50 in the experiment on HOP-92 is 17.2 µM (inactive); in the experiment on KM12, 14.9 µM (inactive); in the experiment with MDA-MB-231, 19.3 µM (inactive); with MDA-MB-435, 16 µM (inactive); in the experiment on NCI-H460 it was 28.4 µM (inactive); with OVCAR-3 it was 15.4 µM (inactive). The GI50 in the experiment on OVCAR-8 is 13.8 µM (inactive); with RPMI-8226 it was 2.24 µM (inactive); in the experiment on SK-MEL-5, 12.7 µM (inactive); in the experiment with SK-OV-3 it was 51.1 µM (inactive); in the experiment with SNB-75, 19.1 µM (inactive); in the experiment with U-251, 14.6 µM (inactive). Further, the figures for the GI50 with UACC-257 and in the experiment on UO-31 were 23.4 µM (inactive) and 20.7 µM (inactive), respectively.

Regarding `CN(/N=C(\C(=O)O)c1ccccc1)C1=NCCCCN1`, the GI50 in the experiment on A549, in the experiment on COLO 205, in the experiment with DU-145, in the experiment with EKVX, in the experiment on HCC 2998 and with HOP-62 was > 100 µM (inactive) in each case. Moreover, the GI50 in the experiment on HOP-92, in the experiment with KM12, in the experiment on MDA-MB-231, in the experiment with MDA-MB-435, in the experiment with NCI-H460 and in the experiment on OVCAR-3 was > 100 µM (inactive) each time. The GI50 in the experiment on OVCAR-8, with RPMI-8226, in the experiment on SK-MEL-5, in the experiment on SK-OV-3, in the experiment on SNB-75 and in the experiment with U-251 was > 100 µM (inactive) in each case. Besides, the GI50 in the experiment on UACC-257 and in the experiment on UO-31 was > 100 µM (inactive) throughout.

Consider `CC1(C)CC[C@]2(C(=O)O)CC[C@]3(C)C(=CCC4=C5C[C@H](O)[C@H](O)[C@@](C)(CO)[C@@]5(C)CC[C@]43C)[C@@H]2C1`, for which the GI50 is 38.5 µM (inactive) in the experiment on A549; 15.2 µM (inactive) in the experiment with COLO 205; 33.4 µM (inactive) in the experiment on DU-145; 51.5 µM (inactive) with EKVX; 24 µM (inactive) in the experiment with HCC 2998; > 100 µM (inactive) with HOP-62. For the same compound, the GI50 was > 100 µM (inactive) in the experiment on HOP-92; 38.9 µM (inactive) in the experiment with KM12; > 100 µM (inactive) in the experiment on MDA-MB-231; 62.1 µM (inactive) in the experiment with MDA-MB-435; 30.4 µM (inactive) with NCI-H460; > 100 µM (inactive) in the experiment with OVCAR-3. In addition, the GI50 was 44.3 µM (inactive) in the experiment on OVCAR-8; 43.8 µM (inactive) in the experiment with RPMI-8226; 22.9 µM (inactive) in the experiment with SK-MEL-5; > 100 µM (inactive) with SK-OV-3; 26.7 µM (inactive) in the experiment on SNB-75; 48.2 µM (inactive) in the experiment on U-251. Further, the GI50 is 71 µM (inactive) in the experiment with UACC-257 and 47.1 µM (inactive) in the experiment with UO-31.

As to `COc1ccc2c(c1)OC(c1cccnc1)C(c1ccccc1)C2=O` (stereo not given), the GI50 in the experiment with A549 was > 100 µM (inactive); with COLO 205, > 100 µM (inactive); in the experiment with DU-145, > 100 µM (inactive); in the experiment on EKVX it was > 100 µM (inactive); with HCC 2998, > 100 µM (inactive); in the experiment on HOP-62, 25.9 µM (inactive). Besides, the GI50 in the experiment with HOP-92 is 49.5 µM (inactive); in the experiment on KM12, > 100 µM (inactive); with MDA-MB-231 it was > 100 µM (inactive); with MDA-MB-435, > 100 µM (inactive); in the experiment on NCI-H460, > 100 µM (inactive); in the experiment on OVCAR-3, > 100 µM (inactive). Besides, the GI50 with OVCAR-8 is 80.2 µM (inactive); with RPMI-8226, > 100 µM (inactive); in the experiment with SK-MEL-5, > 100 µM (inactive); in the experiment with SK-OV-3, 59.4 µM (inactive); with SNB-75, > 100 µM (inactive); with U-251, 43.8 µM (inactive). Further, the GI50 in the experiment on UACC-257 and with UO-31 was > 100 µM (inactive) each time.

For `CCCCON1C[C@H](OC(C)=O)C(OC(C)=O)[C@H](OC(C)=O)C1` (stereo not given in full), the GI50 in the experiment on A549, in the experiment on COLO 205, in the experiment with DU-145, in the experiment with EKVX, in the experiment on HCC 2998 and in the experiment on HOP-62 was > 100 µM (inactive) throughout. The GI50 in the experiment on HOP-92, in the experiment with KM12, with MDA-MB-231, in the experiment with MDA-MB-435, with NCI-H460 and with OVCAR-3 was > 100 µM (inactive) throughout. In addition, the GI50 with OVCAR-8, with RPMI-8226, with SK-MEL-5, with SK-OV-3, with SNB-75 and in the experiment on U-251 was > 100 µM (inactive) in each case. Moreover, the GI50 with UACC-257 and in the experiment on UO-31 was > 100 µM (inactive) each time.

For `COc1ccc(Cc2cc(OC)c(OC)c(OC)c2)cc1`, the GI50 in the experiment on A549 is 0.417 µM (active); in the experiment with COLO 205, 0.143 µM (active); with DU-145, 0.328 µM (active); in the experiment with EKVX it was 1.14 µM (inactive); in the experiment with HCC 2998 it was 0.226 µM (active); in the experiment with HOP-62, 0.411 µM (active). The GI50 in the experiment on HOP-92 was 0.805 µM (active); in the experiment with KM12, 0.144 µM (active); in the experiment on MDA-MB-231, 0.711 µM (active); in the experiment on MDA-MB-435, 0.0236 µM (active); in the experiment on NCI-H460, 0.286 µM (active); in the experiment with OVCAR-3 it was 0.151 µM (active). Besides, the GI50 in the experiment on OVCAR-8 is 0.504 µM (active); in the experiment on RPMI-8226 it was 0.298 µM (active); in the experiment on SK-MEL-5, 0.167 µM (active); in the experiment with SK-OV-3, 0.308 µM (active); in the experiment on SNB-75 it was 0.192 µM (active); in the experiment on U-251 it was 0.261 µM (active). For the same compound, the GI50 was 0.509 µM (active) with UACC-257 and 0.766 µM (active) in the experiment with UO-31.
